Assay results published in US9446024B2, “Formulations for the treatment of vaginal disorders” (Mission Pharmacal Company, priority 2013, dated 2016).

Columns and labels:
Assay in all cases: MIC determination, agar dilution
Format in all cases: cell-based
Lactobacillus jensenii = details: each identified strain
Lactobacillus gasseri = details: each identified strain
Lactobacillus iners = details: each identified strain
Lactobacillus vaginalis = details: Limosilactobacillus vaginalis; each identified strain
Mobiluncus curtisii = details: each identified strain
Lactobacillus crispatus = details: non-reference strain

With `CCS(=O)(=O)CCn1c([N+](=O)[O-])cnc1C` [tinidazole] the MIC (Lactobacillus jensenii) was greater than 150 µg/mL, the MIC (Lactobacillus gasseri) was greater than 150 µg/mL and the MIC (Lactobacillus iners) was greater than 150 µg/mL. The MIC (Lactobacillus vaginalis) was greater than 150 µg/mL, the MIC (Mobiluncus curtisii) was greater than 150 µg/mL and the “growth inhibition at the highest concentration tested” value (Lactobacillus crispatus) was “unaffected”.
